Experimental data taken from patent EP0018134B1, “Dihydropyridine derivatives, processes for their preparation and pharmaceutical compositions containing them” (BEECHAM GROUP PLC, priority 1979, dated 1980).

Test system: Fasted Mice
Assay: Activity on Glucose Tolerance in Fasted Mice
Assay type: in vivo
Conditions: mice fasted 24 hours, 8 per group; dose 0.2 mmol/kg body weight orally in 1% aqueous carboxymethyl cellulose; glucose 1 g/kg sub-cutaneous 30 minutes later; vehicle control (dose 0) value in the row above; asterisks = significance vs controls
Experimental: For this assay mice were fasted for 24 hours before the experiment and then randomised so that each treatment group contained 8 mice. The compounds were dosed orally in 1% aqueous carboxymethyl cellulose (10 ml/kg body weight), and 30 minutes later glucose (1 g/kg) was administered by the sub-cutaneous route. Blood samples for glucose analysis were taken from the tail 60 minutes after glucose administration; the results are shown in the table below.
A standard system for indicating the significance of results with respect to the controls (dose = zero mmol/kg) which received the 1% aqueous carboxymethyl cellulose vehicle only, is as follows: • ** P < 0.05 • *** P < 0.01 • **** P < 0.001
In the following Table, column A represents the dose of compound (mmol/kg body weight) and column B represents the blood glucose concentration (mmol/litre) 60 minutes after sub-cutaneous glucose load.

CC1CN(C(=Nc2ccccc2)N=c2ccccn2C)CC(C)O1 (stereo not shown) [Example 3, N-(1,2-dihydro-1-methyl-2-pyridylidene)-N'-phenyl-4-(2,6-dimethylmorpholine)-carboxamidine]
blood glucose concentration (mmol/litre) 60 minutes after sub-cutaneous glucose load: 3.48 mmol/L

Cn1ccccc1=NC(=Nc1ccccc1)NCc1ccccc1 [Example 4, N-benzyl-N'-(1,2-dihydro-1-methyl-2-pyridylidene)-N"-phenylguanidine]
blood glucose concentration (mmol/litre) 60 minutes after sub-cutaneous glucose load: 5.36 ** mmol/litre

CCN(CC)C(=Nc1ccccc1)N=c1c(C)cccn1C.I [Example 10, N,N-diethyl-N'-(1,2-dihydro-1,3-dimethyl-2-pyridylidene)-N"-phenylguanidine hydroiodide]
blood glucose concentration (mmol/litre) 60 minutes after sub-cutaneous glucose load: 5.54 *** mmol/litre

Cc1ccn(C)c(=NC(=Nc2ccccc2)N2CCOCC2)c1.I [Example 11, N-(1,2-dihydro-1,4-dimethyl-2-pyridylidene)-N'-phenyl-4-morpholinecarboxamidine hydroiodide]
blood glucose concentration (mmol/litre) 60 minutes after sub-cutaneous glucose load: 4.47 ** mmol/litre

Cn1cc(Br)ccc1=NC(=Nc1ccccc1)N1CCOCC1.I [Example 12, N-(5-bromo-1,2-dihydro-1-methyl-2-pyridylidene)-N'-phenyl-4-morpholinecarboxamidine hydroiodide]
blood glucose concentration (mmol/litre) 60 minutes after sub-cutaneous glucose load: 3.52 *** mmol/litre

COC(=O)c1ccc(=NC(=Nc2ccccc2)N2CCOCC2)n(C)c1.I [Example 13, N-(5-carbomethoxy-1,2-dihydro-1-methyl-2-pyridylidene)-N'-phenyl-4-morpholinecarboxamidine hydroiodide]
blood glucose concentration (mmol/litre) 60 minutes after sub-cutaneous glucose load: 3.36 ** mmol/litre

Cc1ccc(=NC(=Nc2ccccc2)N2CCOCC2)n(C)c1 [Example 14, N-(1,2-Dihydro-1,5-dimethyl-2-pyridylidene)-N'-phenyl-4-morpholinecarboxamidine]
blood glucose concentration (mmol/litre) 60 minutes after sub-cutaneous glucose load: 2.53 **** mmol/litre
